Holding throughout (assay type): cell-based
For assay [1], the system named is HeLa cells. The experiment in a line: Autophagy flux assay with Bafilomycin A1, LC3B/LAMP2 double immunofluorescence. As to conditions: control cells treated with BafA1.
For assay [2], the system named is HeLa cells. The experiment in a line: LC3B immunofluorescence, autophagy induction. As to conditions: time-dependent LC3B immunostaining, then return to baseline.
Assay [3] relates to HeLa cells. The experiment in a line: LC3B lipidation assay by western blot. As to conditions: GAPDH loading control. For orientation: In western blotting, separated proteins are transferred to a membrane and probed.

This is an account of results in doi:10.1101/2024.11.03.621781v1 (bioRxiv, 2024).

Molecules are shown by their SMILES.

With `CO/C1=C\C(C)=C\[C@@H](C)[C@@H](O)[C@@H](C)C/C(C)=C/C=C/[C@H](OC)[C@@H]([C@@H](C)[C@@H](O)[C@H](C)[C@@]2(O)C[C@@H](O)[C@H](C)[C@@H](C(C)C)O2)OC1=O` [BafA1, Bafilomycin A1], the “autophagosome accumulation (LC3B puncta) in control cells” value in assay [1] was “marked accumulation of autophagosomes”.
With `CO[C@H]1C[C@@H]2CC[C@@H](C)[C@@](O)(O2)C(=O)C(=O)N2CCCC[C@H]2C(=O)O[C@H]([C@H](C)C[C@@H]2CC[C@@H](O)[C@H](OC)C2)CC(=O)[C@H](C)/C=C(\C)[C@@H](O)[C@@H](OC)C(=O)[C@H](C)C[C@H](C)/C=C/C=C/C=C/1C` [rapamycin], the “time of peak autophagy induction” value in assay [2] stood at 90 min. Further, in assay [3], the “LC3B-II/LC3B-I ratio (LC3B lipidation)” value is reported as “increased LC3B- II/LC3B-I ratio”.
